Assay results reported in ChEMBL document CHEMBL5352429, “Designed symmetrical β-hairpin peptides for treating multidrug-resistant salmonella typhimurium infections” (Eur J Med Chem, 2022).
Converted amounts (≈) assume the structure as drawn. The source made the active and inactive calls. The rule behind the calls is not given here. Peptide text beside a SMILES is read from it.

Assays:
[1] = Antibacterial activity against Salmonella paratyphi C CICC 21512 incubated overnight by standard microtiter dilution method; type: functional, Salmonella enterica subsp. enterica serovar Paratyphi C; conditions: Salmonella enterica
[2] = tested on: Salmonella enterica subsp. enterica serovar Paratyphi B; assay: Antibacterial activity against Salmonella paratyphi B CICC 21495 incubated overnight by standard microtiter dilution method; type: functional
Salmonella typhimurium [3] = assay: Antibacterial activity against Salmonella typhimurium DT104 in the presence of FeCl3 by MH broth based assay; type: functional, Salmonella enterica subsp. enterica serovar Typhimurium; conditions: Salmonella enterica
Salmonella typhimurium [4] = assay: Antibacterial activity against Salmonella typhimurium CICC 21483 incubated overnight by standard microtiter dilution method; type: functional, Salmonella enterica subsp. enterica serovar Typhimurium; conditions: Salmonella enterica
Enterococcus faecalis = assay: Antibacterial activity against Enterococcus faecalis ATCC 29212 incubated overnight by standard microtiter dilution method; type: functional
[5] = tested on: Staphylococcus epidermidis; assay: Antibacterial activity against methicillin-resistant Staphylococcus epidermidis ATCC 12228 incubated overnight by standard microtiter dilution method; type: functional
Staphylococcus aureus [6] = assay: Antibacterial activity against methicillin-resistant Staphylococcus aureus ATCC 43300 incubated overnight by standard microtiter dilution method; type: functional
Salmonella typhimurium [7] = assay: Antibacterial activity against Salmonella typhimurium DT104 in the presence 50% inactivated mouse serum by MH broth based assay; type: functional, Salmonella enterica subsp. enterica serovar Typhimurium; conditions: Salmonella enterica
RAW264.7 [8] = assay: Inhibition of LPS-stimulated NO production in mouse RAW264.7 cells incubated for 24 hrs by Griess reagent based analysis; type: functional, cell-based; conditions: dose 1-128 µg/ml
RAW264.7 [9] = assay: Inhibition of LPS-stimulated IL-8 production in mouse RAW264.7 cells at 1 to 128 ug/ml incubated for 24 hrs by ELISA analysis; type: functional, cell-based; conditions: dose 1-128 µg/ml
Salmonella typhimurium [10] = assay: Antibacterial activity against Salmonella typhimurium DT104 in the presence of KCl by MH broth based assay; type: functional, Salmonella enterica subsp. enterica serovar Typhimurium; conditions: Salmonella enterica
[11] = Antibacterial activity against Salmonella wandsworth CICC 21504 incubated overnight by standard microtiter dilution method; type: functional, Salmonella enterica subsp. enterica serovar Wandsworth; conditions: Salmonella enterica
[12] = Hemolytic activity in human Red blood cells assessed as hemolysis at 128 ug/ml incubated for 1 hrs by absorbance based microplate reader analysis relative to control; type: toxicity, cell-based, Erythrocyte; conditions: red blood cells (erythrocytes), at 128 µg/mL, read-out: Activity
[13] = Antibacterial activity against Salmonella blockley CICC 21489 incubated overnight by standard microtiter dilution method; type: functional, Salmonella enterica subsp. enterica serovar Blockley; conditions: Salmonella enterica
Salmonella paratyphi = assay: Antibacterial activity against Salmonella paratyphi A CICC 21501 incubated overnight by standard microtiter dilution method; type: functional, Salmonella enterica subsp. enterica serovar Paratyphi A; conditions: Salmonella enterica
[14] = Antibacterial activity against Salmonella dublin CICC 21497 incubated overnight by standard microtiter dilution method; type: functional, Salmonella enterica subsp. enterica serovar Dublin; conditions: Salmonella enterica
[15] = Antibacterial activity against Salmonella enterica subsp. enterica serovar Choleraesuis ATCC 13312 incubated overnight by standard microtiter dilution method; type: functional
Escherichia coli = assay: Antibacterial activity against Escherichia coli O157:H7 CICC 21530 incubated overnight by standard microtiter dilution method; type: functional
RAW264.7 [16] = assay: Inhibition of LPS-stimulated IL-1beta production in mouse RAW264.7 cells at 1 to 128 ug/ml incubated for 24 hrs by ELISA analysis; type: functional, cell-based; conditions: dose 1-128 µg/ml
RAW264.7 [17] = assay: Inhibition of LPS-stimulated TNF-alpha production in mouse RAW264.7 cells at 1 to 128 ug/ml incubated for 24 hrs by ELISA analysis; type: functional, cell-based; conditions: dose 1-128 µg/ml
Cell membrane = assay: Disruption of membrane integrity in Salmonella typhimurium DT104 assessed as increase in fluorescence intensity at 0.5 to 2 times of MIC incubated for 15 mins by PI staining based flow cytometric analysis; type: subcellular; conditions: Salmonella enterica subsp. enterica serovar Typhimurium
Salmonella typhimurium [18] = assay: Antibacterial activity against Salmonella typhimurium DT104 ATCC 700408 incubated overnight by standard microtiter dilution method; type: functional, Salmonella enterica subsp. enterica serovar Typhimurium; conditions: Salmonella enterica
Salmonella typhimurium [19] = assay: Antibacterial activity against Salmonella typhimurium DT104 in the presence of MgCl2 by MH broth based assay; type: functional, Salmonella enterica subsp. enterica serovar Typhimurium; conditions: Salmonella enterica
Erythrocyte = assay: Hemolytic activity in human Red blood cells assessed as hemolysis incubated for 1 hrs by absorbance based microplate reader analysis; type: toxicity, cell-based
Salmonella typhimurium [20] = assay: Antibacterial activity against Salmonella typhimurium DT104 in the presence of CaCl2 by MH broth based assay; type: functional, Salmonella enterica subsp. enterica serovar Typhimurium; conditions: Salmonella enterica
Salmonella enteritidis = assay: Antibacterial activity against Salmonella enteritidis CICC 21527 incubated overnight by standard microtiter dilution method; type: functional, Salmonella enterica subsp. enterica serovar Enteritidis; conditions: Salmonella enterica
[21] = Antibacterial activity against Salmonella enterica subsp. enterica serovar Choleraesuis CICC 21493 incubated overnight by standard microtiter dilution method; type: functional
Staphylococcus aureus [22] = assay: Antibacterial activity against Staphylococcus aureus ATCC 29213 incubated overnight by standard microtiter dilution method; type: functional
Salmonella typhimurium [23] = assay: Antibacterial activity against Salmonella typhimurium CICC 21913 incubated overnight by standard microtiter dilution method; type: functional, Salmonella enterica subsp. enterica serovar Typhimurium; conditions: Salmonella enterica
Salmonella typhimurium [24] = assay: Antibacterial activity against Salmonella typhimurium DT104 in the presence of NH4Cl by MH broth based assay; type: functional, Salmonella enterica subsp. enterica serovar Typhimurium; conditions: Salmonella enterica
Lipopolysaccharide (LPS) = assay: Displacement of BODIPY-TR-cadaverine from Salmonella typhimurium LPS assessed as increase in fluorescence intensity by fluorescence spectrophotometric analysis; conditions: Salmonella enterica subsp. enterica serovar Typhimurium; dose 0.25-8 µg/ml
Candida albicans = assay: Antifungal activity against Candida albicans ATCC 10231 incubated overnight by standard microtiter dilution method; type: functional
Salmonella typhimurium [25] = assay: Antibacterial activity against Salmonella typhimurium DT104 in the presence of NaCl by MH broth based assay; type: functional, Salmonella enterica subsp. enterica serovar Typhimurium; conditions: Salmonella enterica
Salmonella typhimurium [26] = assay: Antibacterial activity against Salmonella typhimurium DT104 in the presence 25% inactivated mouse serum by MH broth based assay; type: functional, Salmonella enterica subsp. enterica serovar Typhimurium; conditions: Salmonella enterica

SMILES | MIC [1] [µg/mL] | MIC [2] [µg/mL] | MIC (Salmonella typhimurium [3]) [µg/mL] | MIC (Salmonella typhimurium [4]) [µg/mL] | MIC (Enterococcus faecalis) [µg/mL] | MIC [5] [µg/mL] | MIC (Staphylococcus aureus [6]) [µg/mL] | MIC (Salmonella typhimurium [7]) [µg/mL] | inhibition (RAW264.7 [8]) | inhibition (RAW264.7 [9]) | MIC (Salmonella typhimurium [10]) [µg/mL] | MIC [11] [µg/mL] | hemolysis at 1 h, 128 ug/ml [12] [%] | MIC [13] [µg/mL] | MIC (Salmonella paratyphi) [µg/mL] | MIC [14] [µg/mL] | MIC [15] [µg/mL] | MIC (Escherichia coli) [µg/mL] | inhibition (RAW264.7 [16]) | inhibition (RAW264.7 [17]) | other results
CC(C)[C@H](NC(=O)CNC(=O)[C@H](CC(N)=O)NC(=O)CNC(=O)[C@H](Cc1ccc(O)cc1)NC(=O)[C@H](Cc1ccc(O)cc1)NC(=O)[C@@H](N)CCCCN)C(=O)N[C@@H](Cc1c[nH]cn1)C(=O)N[C@@H](CS)C(=O)N[C@H](C(=O)N[C@@H](CCCCN)C(=O)N[C@@H](CO)C(=O)NCC(=O)N[C@@H](CS)C(=O)N[C@@H](CO)C(=O)N[C@H](C(=O)N[C@@H](CC(N)=O)C(=O)N[C@@H](Cc1c[nH]c2ccccc12)C(N)=O)C(C)C)[C@@H](C)O (H-KYYGNGVHCTKSGCSVNW-NH2) | 32 (≈ 16 µM) | 32 (≈ 16 µM) | 64 | 64 (≈ 32 µM) | > 128 | 64 (≈ 32 µM) | > 128 | > 128 | Dose-Dependent Effect | Active | 128 | 64 (≈ 32 µM) | < 10 | 64 (≈ 32 µM) | 128 (≈ 63.9 µM) | 32 (≈ 16 µM) | 32 (≈ 16 µM) | 64 (≈ 32 µM) | Active | Active | Activity (Cell membrane): inactive; MIC (Salmonella typhimurium [18]): > 128 µg/mL; MIC (Salmonella typhimurium [19]): 128 µg/mL; MHC (Erythrocyte): > 128 µg/mL; MIC (Salmonella typhimurium [20]): > 128 µg/mL; MIC (Salmonella enteritidis): 64 µg/mL (≈ 32 µM); MIC [21]: 128 µg/mL (≈ 63.9 µM); MIC (Staphylococcus aureus [22]): > 128 µg/mL; MIC (Salmonella typhimurium [23]): > 128 µg/mL; MIC (Salmonella typhimurium [24]): 64 µg/mL; Activity (Lipopolysaccharide (LPS)): Dose-Dependent Effect; MIC (Candida albicans): 16 µg/mL (≈ 7.99 µM); MIC (Salmonella typhimurium [25]): > 128 µg/mL; MIC (Salmonella typhimurium [26]): > 128 µg/mL
CC(C)[C@H](N)C(=O)N[C@@H](CCCCN)C(=O)N[C@H](C(=O)N[C@@H](CCCCN)C(=O)N[C@@H](CS)C(=O)N[C@H](C(=O)N[C@@H](CCCCN)C(=O)N[C@@H](CO)C(=O)NCC(=O)N[C@@H](CS)C(=O)N[C@@H](CCCCN)C(=O)N[C@H](C(=O)N[C@@H](CCCCN)C(=O)N[C@H](C(N)=O)C(C)C)C(C)C)[C@@H](C)O)C(C)C (H-VKVKCTKSGCKVKV-NH2) | 64 (≈ 42.5 µM) | 16 (≈ 10.6 µM) | > 128 | > 128 | > 128 | > 128 | > 128 | > 128 | Dose-Dependent Effect | Active | > 128 | > 128 | < 10 | > 128 | > 128 | > 128 | 4 (≈ 2.66 µM) | 64 (≈ 42.5 µM) | Active | Active | Activity (Cell membrane): Active; MIC (Salmonella typhimurium [18]): > 128 µg/mL; MIC (Salmonella typhimurium [19]): > 128 µg/mL; MHC (Erythrocyte): > 128 µg/mL; MIC (Salmonella typhimurium [20]): > 128 µg/mL; MIC (Salmonella enteritidis): > 128 µg/mL; MIC [21]: > 128 µg/mL; MIC (Staphylococcus aureus [22]): > 128 µg/mL; MIC (Salmonella typhimurium [23]): > 128 µg/mL; MIC (Salmonella typhimurium [24]): > 128 µg/mL; Activity (Lipopolysaccharide (LPS)): Dose-Dependent Effect; MIC (Candida albicans): 16 µg/mL (≈ 10.6 µM); MIC (Salmonella typhimurium [25]): > 128 µg/mL; MIC (Salmonella typhimurium [26]): > 128 µg/mL
